≈ marks a conversion by molar mass, not a printed value.
What was measured:
[1] = system: Staphylococcus epidermidis; test: Antibacterial activity against Staphylococcus epidermidis ATCC 12228 assessed as reduction in bacterial growth measured after 24 hrs by broth microdilution method; type: functional
Staphylococcus aureus [2] = test: Antibacterial activity against Staphylococcus aureus ATCC 29213 assessed as bacterial growth inhibition incubated for 24 hrs by broth dilution method; type: functional
Staphylococcus aureus [3] = test: Antibacterial activity against methicillin-resistant Staphylococcus aureus ATCC 3300 assessed as reduction in microbial growth measured after 24 hrs by broth microdilution analysis; type: functional
Escherichia coli = test: Antibacterial activity against Escherichia coli; type: functional
Streptococcus pneumoniae [4] = test: Antibacterial activity against Streptococcus pneumoniae; type: functional
Staphylococcus aureus [5] = test: Antibacterial activity against Methicillin-resistant Staphylococcus aureus assessed as reduction in microbial growth by Muller Hinton broth based dilution assay; type: functional
MCF7 = test: Anticancer activity against human MCF7 cells assessed as inhibition of cell proliferation measured after 48 hrs by MTT assay; type: functional, cell-based; details: MCF7, 48 h
HT-29 = test: Anticancer activity against human HT-29 cells assessed as inhibition of cell proliferative measured after 48 hrs by MTT assay; type: functional, cell-based; details: HT-29, 48 h
Staphylococcus aureus [6] = test: Antibacterial activity against Staphylococcus aureus ATCC 25923 assessed as inhibition of bacterial growth incubated for 24 hrs by CLSI based broth microdilution method; type: functional
Enterococcus faecalis [7] = test: Antibacterial activity against Enterococcus faecalis ATCC 29212 assessed as inhibition of bacterial growth incubated for 24 hrs by CLSI based broth microdilution method; type: functional
Streptococcus pneumoniae [8] = test: Antibacterial activity against Streptococcus pneumoniae ATCC 49619 assessed as inhibition of bacterial growth incubated for 24 hrs by CLSI based broth microdilution method; type: functional
Bacillus subtilis = test: Antibacterial activity against Bacillus subtilis ATCC 6633 assessed as inhibition of bacterial growth incubated for 24 hrs by CLSI based broth microdilution method; type: functional
Staphylococcus aureus [9] = test: Antibacterial activity against Staphylococcus aureus ATCC 29213 assessed as reduction in microbial growth measured after 24 hrs by broth microdilution analysis; type: functional
Staphylococcus aureus [10] = test: In vivo antibacterial activity against Staphylococcus aureus UC9213 infected in PO dosed mouse assessed as reduction in bacterial infection measured after 6 days by hematoxylin and eosin staining based microscopic analysis; type: functional; details: UC9213, 144 h, time 6 day
Staphylococcus aureus [11] = test: Antibacterial activity against Staphylococcus aureus UC9213 assessed as reduction in bacterial growth; type: functional
Staphylococcus aureus [12] = test: Antibacterial activity against fluoroquinolone/methicillin resistant Staphylococcus aureus clinical isolate 19-26 assessed as bacterial growth inhibition measured after 16 to 18 hrs by serial dilution method; type: functional; details: time 16-18 hrs
Staphylococcus aureus [13] = test: Antibacterial activity against vancomycin-resistant Staphylococcus aureus assessed as bacterial growth inhibition measured after 16 to 18 hrs by serial dilution method; type: functional; details: time 16-18 hrs
[14] = system: Mycobacterium tuberculosis; test: Antimycobacterial activity against Mycobacterium tuberculosis H37Rv assessed as reduction in bacterial cell growth by resazurin reduction method; type: functional
[15] = Clearance in CF1 mouse; type: ADME; details: in vivo
Staphylococcus aureus [16] = test: Antibacterial activity against Methicillin-resistant Staphylococcus aureus assessed as inhibition of bacterial growth; type: functional
Staphylococcus aureus [17] = test: Antibacterial activity against methicillin-susceptible Staphylococcus aureus assessed as inhibition of bacterial growth; type: functional
Staphylococcus aureus [18] = test: Antibacterial activity against Staphylococcus aureus ATCC 25923 assessed as growth inhibition measured after 18 hrs by CLSI based method; type: functional
Streptococcus pneumoniae [19] = test: Antibacterial activity against Streptococcus pneumoniae ATCC 49619 assessed as reduction in bacterial growth measured after 18 hrs by CLSI based analysis; type: functional
Streptococcus pyogenes = test: Antibacterial activity Streptococcus pyogenes ATCC 12344 assessed as reduction in microbial growth by broth microdilution method; type: functional
Moraxella catarrhalis = test: Antibacterial activity against wild type Moraxella catarrhalis incubated for 20 hrs by two-fold serial dilution method; type: functional
Haemophilus influenzae = test: Antibacterial activity against Haemophilus influenzae ATCC 49247 by broth microdilution method; type: functional
[20] = system: Mycobacterium tuberculosis; test: Antimycobacterial activity against Mycobacterium tuberculosis assessed as reduction in bacterial growth; type: functional
[21] = system: Mycobacterium tuberculosis; test: Antimycobacterial activity against Mycobacterium tuberculosis H37Rv assessed as reduction in bacterial growth incubated for 7 days by resazurin based assay; type: functional; details: 168 h, time 7 day
PC-3 = test: Inhibition of mitochondrial protein synthesis in human PC-3 cells at 100 uM incubated for 5 days; type: functional, cell-based; details: PC-3, 120 h
Staphylococcus aureus [22] = test: Antibacterial activity against methicillin-resistant Staphylococcus aureus ATCC 4330 assessed as reduction in microbial growth incubated for 18 hrs by broth microdilution method; type: functional
[23] = system: Staphylococcus epidermidis; test: Antibacterial activity against methicillin-resistant Staphylococcus epidermidis ATCC 12228 assessed as reduction in microbial growth incubated for 18 hrs by broth microdilution method; type: functional
Staphylococcus aureus [24] = test: Antibacterial activity against vancomycin-resistant Staphylococcus aureus clinical isolate 1 assessed as inhibition of bacterial growth by broth microdilution method; type: functional
Enterococcus faecium = test: Antibacterial activity against Enterococcus faecium ATCC 19434 assessed as reduction in microbial growth after 24 hrs by two-fold serial dilution method; type: functional
Enterococcus faecalis [25] = test: Antibacterial activity against Enterococcus faecalis ATCC 29212 assessed as reduction in microbial growth after 24 hrs by two-fold serial dilution method; type: functional
Streptococcus pneumoniae [26] = test: Antibacterial activity against Streptococcus pneumoniae ATCC 49619 assessed as inhibition of bacterial growth measured after 24 hrs by MH broth based assay; type: functional

Q: With `O=C(CO)N1CC=C(c2ccc(N3C[C@H](COc4cnsn4)OC3=O)cc2F)CC1` as the molecule, how does the MIC [1] read?
A: Its MIC is 0.13 µg/mL (≈ 0.299 µM).

Q: For `C/C(S)=N\C[C@H]1CN(c2cc(F)c3c(c2)OC[C@@H]2CCCN32)C(=O)O1`, which MIC (Staphylococcus aureus [2]) is on record?
A: Its MIC is 0.5 µg/mL (≈ 1.37 µM).

Q: For `O=C1O[C@@H](COc2ccon2)CN1c1ccc(C2=CCOCC2)c(F)c1`, which MIC (Staphylococcus aureus [3]) is on record?
A: Its MIC is 0.5 µg/mL.

Q: Which results are given for `O=C(NO)[C@@H]1CN(c2ccc(C#CC#CC3CC3)c(F)c2)C(=O)O1`?
A: MIC (Escherichia coli): 0.004 µg/mL (≈ 0.0122 µM); MIC (Streptococcus pneumoniae [4]): 0.004 µg/mL (≈ 0.0122 µM)

Q: For `O=C1O[C@@H](Cn2ccnn2)CN1c1ccc(N2CCN(S(=O)(=O)c3cccc([N+](=O)[O-])c3)CC2)c(F)c1`, which MIC (Staphylococcus aureus [5]) is on record?
A: The MIC was 0.5 µg/mL.

Q: For `O=C1NC2(CO1)O/C(=C\c1ccc(Cl)cc1)C(=O)N2CCCNc1ccnc2cc(Cl)ccc12` (configuration not stated), which IC50 (MCF7) is on record?
A: Its IC50 is 16.1 µM.

Q: And the IC50 (HT-29)?
A: The IC50 was 32.4 µM.

Q: What does the source list for `CC(=O)NC[C@H]1CN(c2ccc(N3CCN(C(=O)/C=C/c4ccco4)CC3)nc2)C(=O)O1`?
A: MIC (Staphylococcus aureus [6]): 8 µg/mL (≈ 18.2 µM); MIC (Enterococcus faecalis [7]): 8 µg/mL (≈ 18.2 µM)

Q: With `O=C([C@H](O)CO)N1CC=C(c2ccc(N3C[C@H](COc4cnsn4)OC3=O)cc2F)CC1` as the molecule, how does the MIC [1] read?
A: Its MIC is 0.13 µg/mL (≈ 0.28 µM).

Q: Which MIC (Streptococcus pneumoniae [8]) does the source give for `CC(=O)NC[C@H]1CN(c2ccc(N3CCN(C(=O)c4ccco4)CC3)nc2)C(=O)O1` here?
A: Its MIC is greater than 64 µg/mL.

Q: Which MIC (Bacillus subtilis) does the source give for `CC(=O)NC[C@H]1CN(c2cnc(N3CCN(C(=O)/C=C/c4ccco4)CC3)c(F)c2)C(=O)O1` here?
A: The MIC was 4 µg/mL (≈ 8.74 µM).

Q: With `O=C([C@H](O)CO)N1CC=C(c2ccc(N3C[C@H](COc4ccon4)OC3=O)cc2F)CC1` as the molecule, how does the MIC (Staphylococcus aureus [9]) read?
A: Its MIC is 0.25 µg/mL.

Q: With `CC(=O)NC[C@H]1CC(c2ccc(C3=CCN(C(=O)CO)CC3)c(F)c2)=NO1` as the molecule, how does the ED50 (Staphylococcus aureus [10]) read?
A: The ED50 was 9.1 mg/kg.

Q: What about the MIC (Staphylococcus aureus [11]) of the same molecule?
A: Its MIC is 1 µg/mL (≈ 2.66 µM).

Q: What does the source list for `O=C1C=CN(c2c(F)cc(N3C[C@H](CNc4ccon4)OC3=O)c(F)c2F)CC1` [CONTEZOLID]?
A: MIC (Staphylococcus aureus [12]): 0.125 µg/mL (≈ 0.306 µM); MIC (Staphylococcus aureus [13]): 0.5 µg/mL (≈ 1.22 µM)

Q: Which MIC [14] does the source give for `CN1CCN(c2ccc(N3C[C@H](CO)OC3=O)cc2F)C=N1` [DELPAZOLID] here?
A: Its MIC is 0.5 µg/mL (≈ 1.62 µM).

Q: For `CC(=O)NC[C@H]1CN(c2ccc(N3CCOCC3)c(F)c2)C(=O)O1` [LINEZOLID], which clearance [15] is on record?
A: The clearance was 10.5 mL/min/kg.

Q: What about the MIC (Staphylococcus aureus [16]) of the same molecule?
A: Its MIC is 1 µg/mL (≈ 2.96 µM).

Q: What about the MIC (Staphylococcus aureus [17]) of the same molecule?
A: The MIC was 1 µg/mL (≈ 2.96 µM).

Q: With `O=C([C@@H](O)CO)N1CC=C(c2c(F)cc(N3C[C@H](COc4ccon4)OC3=O)cc2F)CC1` [POSIZOLID] as the molecule, how does the MIC (Staphylococcus aureus [9]) read?
A: The MIC was 0.25 µg/mL.

Q: Which MIC (Staphylococcus aureus [18]) does the source give for `CC(=O)NC[C@H]1CN(c2ccc(-c3ccc(CNCc4cnn[nH]4)cc3)c(F)c2)C(=O)O1` [RADEZOLID] here?
A: Its MIC is 1 µg/mL (≈ 2.28 µM).

Q: What about the MIC (Streptococcus pneumoniae [19]) of the same molecule?
A: Its MIC is 0.25 µg/mL (≈ 0.57 µM).

Q: And the MIC (Streptococcus pyogenes)?
A: Its MIC is 0.25 µg/mL.

Q: What about the MIC90 (Moraxella catarrhalis) of the same molecule?
A: The MIC90 was 0.5 µg/mL (≈ 1.14 µM).

Q: And the MIC90 (Haemophilus influenzae)?
A: Its MIC90 is 1 µg/mL (≈ 2.28 µM).

Q: Which MIC [20] does the source give for `CC(=O)NC[C@H]1CN(c2ccc(N3CCSCC3)c(F)c2)C(=O)O1` [SUTEZOLID] here?
A: The MIC was 0.125 µg/mL (≈ 0.354 µM).

Q: For `COC(=O)NC[C@H]1CN(c2ccc(N3CC4(COC4)C3)c(F)c2)C(=O)O1` [TBI-223], which MIC [21] is on record?
A: Its MIC is 0.6 µg/mL (≈ 1.64 µM).

Q: And the IC50 (PC-3)?
A: Its IC50 is greater than 74 µM.

Q: With `Cn1nnc(-c2ccc(-c3ccc(N4C[C@H](COP(=O)(O)O)OC4=O)cc3F)cn2)n1` [TEDIZOLID PHOSPHATE] as the molecule, how does the MIC50 (Staphylococcus aureus [22]) read?
A: The MIC50 was 0.12 µg/mL.

Q: And the MIC90 [23]?
A: Its MIC90 is 0.12 µg/mL.

Q: And the MIC (Staphylococcus aureus [24])?
A: The MIC was 0.25 µg/mL.

Q: What about the MIC (Enterococcus faecium) of the same molecule?
A: The MIC was 0.25 µg/mL.

Q: And the MIC (Enterococcus faecalis [25])?
A: The MIC was 0.25 µg/mL.

Q: What about the MIC (Streptococcus pneumoniae [26]) of the same molecule?
A: Its MIC is 0.25 µg/mL.

Source: ChEMBL document CHEMBL5532634, “Oxazolidinone: A promising scaffold for the development of antibacterial drugs” (Eur J Med Chem, 2023)
